Source: ChEMBL document CHEMBL3507680, “University of Dundee, Gates Library screen for HepG2 cell viability”

Assay: Human HepG2 cell viability assay in 384 well format
Format: toxicity, cell-based
Set-up: dose 125 nL, time 70.5 hour; concentration not given beside the values
Details: HepG2 cells, read-out: Inhibition

Row | Compound | cytotoxicity at 70.5 h [%]
1 | COC(=O)c1ccc(Cn2cccc(C(F)(F)F)c2=O)s1 | -2.65
2 | CCc1noc(C(C)N2CCN(Cc3noc(C4CC4)n3)CC2)n1 (centres undefined) | -8.62
3 | Cc1noc(C)c1CCCNC(=O)Nc1cccc([S+](C)[O-])c1 (centres undefined) | -3.63
4 | CC(C(=O)Nc1cccc(C(F)(F)F)c1)N(C)CCN1CCOCC1 (centres undefined) | -8.82
5 | Cc1ccc(S(=O)(=O)N(C)CC(C)O)c(F)c1 (centres undefined) | 21.4
6 | COC(=O)c1ccc(NC2CCN(CC(F)(F)F)C2=O)cc1C (centres undefined) | 26.2
7 | CCc1nc(CN2CCCN(C(=O)c3ccccc3)CC2)cs1 | -1.48
8 | CC(NC(=O)CCNC(=O)c1ccoc1)c1ccccc1 (centres undefined) | -7.29
9 | Cc1nn(-c2ccccc2)c(C)c1CNC(=O)NC1CC1 | -3.17
10 | Cc1nnc(NC(=O)N2CCC(N3CCCCC3)CC2)s1 | -8.18
11 | NC(=O)CSc1ccccc1NCc1nc(C2CC2)no1 | 15
12 | COc1ccc(OC)c(-c2csc(-c3cccc(C(=O)O)c3)n2)c1 | -16.7
13 | COCCNC(=O)NCC(C)c1ccccc1OC (centres undefined) | -8.45
14 | CCc1nc(CN2CCCN(C(=O)c3cccn3C)CC2)cs1 | 2.1
15 | O=C(Cn1cncn1)NCC1CCN(Cc2ccccc2Cl)CC1 | 2.75
16 | CS(=O)(=O)c1cccc(S(=O)(=O)NC(=O)c2cscn2)c1 | -4.27
17 | O=C(CCC(=O)N1CCOCC1c1ccccc1)c1cccs1 (centres undefined) | -2.2
18 | O=C(NS(=O)(=O)c1cccc(C(F)(F)F)c1)c1cnsn1 | -5.69
19 | COc1cc2c(nn1)CCN(Cc1noc(-c3ccccc3)n1)C2 | 2.93
20 | COc1cc2c(nn1)CCN(Cc1nc(Cc3ccccc3)no1)C2 | 2.14
21 | CNC(=O)c1ccc(NC2CCN(CC(F)(F)F)C2=O)cc1Cl (centres undefined) | -7.41

Row | Compound | cytotoxicity at 70.5 h [%]
22 | COc1c(CNCc2ccccc2CN2CCOCC2)c(C)nn1C | -7.68
23 | CC(=O)N(Cc1ncc(C)o1)C1CCN(CCOc2ccccc2)C1 (centres undefined) | 17.4
24 | Cc1nc(CN(C)Cc2cc3c(cc2OC(F)F)OCO3)cs1 | -7.91
25 | Cc1ccoc1CNCc1nnc2n1CC(C(F)(F)F)CC2 (centres undefined) | -12.1
26 | CCn1ccnc1CN1CCC(N(Cc2ncc(C)o2)C(C)=O)C1 (centres undefined) | 4.91
27 | CC(=O)N(Cc1ncc(C)o1)C1CCN(Cc2ccc(F)c(F)c2)C1 (centres undefined) | -4.3
28 | CC(=O)N(Cc1ncc(C)o1)C1CCN(Cc2nnc(C3CC3)o2)C1 (centres undefined) | 10
29 | O=C(NCc1cccnc1-n1cncn1)c1cncc(Br)c1 | 0.0598
30 | CCSc1cc(C(=O)NC2CCN(C(=O)c3ccncc3)CC2)ccn1 | -0.0904
31 | CCCN1CCC(NC(=O)c2ccnc(SCC)c2)CC1 | -0.521
32 | CCn1cc(NC(=O)C2CCN(Cc3nc(C)c(C)o3)CC2)cn1 | -11.4
33 | CN(C)c1cc(C(=O)NCc2cccnc2-n2cncn2)ccn1 | -16.1
34 | Cc1ccc(CNC(CN2CCN(C)CC2)c2ccccc2)cc1C (centres undefined) | 35.8
35 | CCCNC(=O)CCNc1cncc(-n2nc(C)cc2C)n1 | -4.63
36 | Fc1ccc(CNCc2nnc3n2CC(C(F)(F)F)CC3)c(F)c1 (centres undefined) | -7.11
37 | Cc1cccc2nc(CNC(=O)N3CCC(N4CC=CC4)C3)cn12 (centres undefined) | -14.4
38 | CC(=O)N(Cc1ncc(C)o1)C1CCN(CCc2ccncc2)C1 (centres undefined) | 7.37
39 | O=S(=O)(c1ccc(F)cc1F)N1CCCCC1c1nnc2n1CCCC2 (centres undefined) | -12.7
40 | Cc1cnn(CC2CCCCN2C(=O)CCCc2nc(C)no2)c1 (centres undefined) | -5.29
41 | Cc1ccc(C2CCCN2S(=O)(=O)N(C)Cc2cnccn2)o1 (centres undefined) | -3.89
42 | Cc1nc(CN2CCN(C(=O)CCC(=O)c3ccccc3)CC2)no1 | 12.6

Row | Compound | cytotoxicity at 70.5 h [%]
43 | CCn1c(C)nnc1CN(C)C1CCN(Cc2c(C)noc2C)C1 (centres undefined) | -4.05
44 | CCn1c(C)nnc1CN(C)C1CCN(Cc2ccon2)C1 (centres undefined) | -1.86
45 | Cc1ccccc1OCCSc1nnc(CC2CCS(=O)(=O)C2)n1C (centres undefined) | -7.8
46 | O=C(NCCN1CCOCC1)c1cc(Cl)c2c(c1)OCCCO2 | -5.1
47 | Cc1cccc(Nc2c(C#N)c(=O)n(C)c(=O)n2C)c1 | -3.97
48 | COc1ccc(CNC(=O)C2=NN(c3ccc(C)cc3)C(=O)CN2)cc1 | -5.36
49 | Cc1noc(CN2CCN(CCS(C)(=O)=O)CC2)n1 | -2.73
50 | CC(C)N1CC(C(=O)NC(C)(C)CNC(=O)OC(C)(C)C)CC1=O (centres undefined) | -3.84
51 | CC1CCCCN1C(=O)Cn1cc(I)cn1 (centres undefined) | -1.82
52 | CC1CCN(C(=O)Cn2cc(I)cn2)CC1 | 0.739
53 | CC(C)Cc1ccc(C(=O)Cn2cnnc2[S+](C)[O-])cc1 (centres undefined) | -3.94
54 | C[S+]([O-])c1nncn1CC(=O)c1cccc(Br)c1 (centres undefined) | -3.69
55 | CC(NC(=O)Nc1ccc(OC2CCCC2)cc1)c1nc[nH]n1 (centres undefined) | 12.8
56 | CC(NC(=O)Nc1cc(F)cc(F)c1)c1nc[nH]n1 (centres undefined) | -5.9
57 | CC(C)c1nn(C)c(N(C)C)c1CNCc1cccnc1 | -1.06
58 | COc1ccc(NC(=O)NC(C)c2nc[nH]n2)cc1Cl (centres undefined) | -2.57
59 | Cc1noc(CN2CCN(CCO)CC2)n1 | -3.7
60 | CCC(C)(NCC(=O)OC)c1nc(C)cs1 (centres undefined) | -1.12
61 | CC(C)(C)OC(=O)NCC1CCCCN1Cc1cccc(C(N)=O)c1 (centres undefined) | 1.21
62 | Cc1nn(C)c(N(C)C)c1CNC(C)c1cccnc1 (centres undefined) | -6.25
63 | COc1ccccc1C(CNC(=O)NCc1cc[nH]n1)N1CCCC1 (centres undefined) | 12.7

Row | Compound | cytotoxicity at 70.5 h [%]
64 | Cc1cnn(CC2CCCN2Cc2cc(=O)n3cc(C)ccc3n2)c1 (centres undefined) | -1.28
65 | CN(C)C(CNC(=O)NCc1cc[nH]n1)c1ccco1 (centres undefined) | 0.0309
66 | Clc1cccc(CNC2CCN(CCc3ccncc3)CC2)c1 | 0.526
67 | CC(C)n1c(C2CCCN(CC(=O)NC3CC3)C2)nc2ccccc21 (centres undefined) | -1.26
68 | CC(NCc1ccc(-c2ccc(F)cc2)o1)c1nnc2n1CCC2 (centres undefined) | -9.83
69 | Cc1cc(NC(=O)c2nc(N3CCCC3)ncc2Cl)ccc1Br | -5.96
70 | NCC1(c2cccc(F)c2)CCOCC1 | 19.1
71 | CCN(CC)c1ccc(NC(=O)N2CCc3sccc3C2)cn1 | -2.76
72 | O=C(Nc1ccc(N2CCOCC2)nc1)N1CCc2sccc2C1 | 46.1
73 | COc1cc(CN(C)C(=O)NCCNC(=O)C2CC2)ccc1SC | -16
74 | CCN(CCCNC(=O)c1ccc(C)[nH]c1=O)S(C)(=O)=O | -0.303
75 | O=C(c1cc2c([nH]c1=O)CCC2)N1CCCC1c1ccccc1 (centres undefined) | -4.54
76 | O=C(c1cc2c([nH]c1=O)CCC2)N1CCCC1c1ccccn1 (centres undefined) | -2.83
77 | COCCN(CCC#N)S(=O)(=O)c1ccc(F)cc1F | 0.44
78 | CCc1nc(CCNC(=O)NC2CCN(C(C)C)C2)sc1C (centres undefined) | -3.64
79 | CSc1cc2c(cc1NC(=O)NCCn1ccnc1)OCCO2 | -3
80 | O=C(Nc1cc(Cl)ccn1)c1nc(N2CCCC2)ncc1Cl | -2.78
81 | CCCn1nc2c(cc1=O)CN(Cc1c(C)noc1C)CC2 | -6.66
82 | CCC(C)(CO)NC(=O)Nc1cc2c(cc1SC)OCCO2 (centres undefined) | -1.22
83 | CC(C(=O)Nc1ccnn1C(C)C)N1CCN(Cc2ccon2)CC1 (centres undefined) | 1.23
84 | Cc1nn(C)c(N(C)C)c1CNCc1cccc(CN(C)C)c1 | -3.97
